| Compound | melting point [°C] |
| --- | --- |
| CCOc1cc(C)ccc1C1CCN(CCCCNC(=O)c2ccc(C=Cc3ccc(C(F)(F)F)cc3)cc2)CC1 | 210 |
| CNc1cc(F)cc(NC)c1[N+](=O)[O-] | 198 |
| O=C(Nc1nccs1)C(CC1CCCC1)c1ccc(Cl)c(Cl)c1 (stereo unspecified) | 120 to 122 |
| CCCCNC(=O)N1C2=NC(C)(C)N(C)C(=O)N2c2ccccc21 | 95 to 97 |
| OC(CCn1ccnc1)(c1ccccc1)c1ccc2sc3ccccc3c2c1 (stereo unspecified) | 88 to 91 |
| CC(C)(C)c1cc(CP(=O)(Oc2ccccc2)Oc2ccccc2)cc(C(C)(C)C)c1O | 130 |
| N#Cc1c(N2CCCCC2)cc(-c2cccs2)c2c1-c1ccccc1C2=O | 172 to 174 |
| CC(C)(C)c1noc(-c2cnc(Cl)c(Cl)c2)n1 | 98 to 101 |
| CNc1cccc(C(=O)O)c1C | 165 to 167 |
| COc1nc(-c2ccc(=O)n(C(C)C)n2)c(-c2ccccc2)nc1N | 211 to 214 |
| Cn1cc(-c2ccc(F)cc2)nc1SCCSc1nc(-c2ccc(F)cc2)c(-c2ccc(F)cc2)[nH]1 | 202 to 205 |
| COc1cccc(OC)c1-c1cc(C(=O)NC2(C(=O)O)C3CC4CC(C3)CC2C4)nn1-c1ccc(CNC(C)=O)c2ccccc12 (stereo unspecified) | 211 |
| COCC(O)Cn1ncc([N+](=O)[O-])n1 (stereo unspecified) | 58.2 to 59 |
| Oc1ccc2nc(-c3cccc4ccccc34)oc2c1 | 185 to 187 |
| CC(C)(O)C(C)(O)Cc1ccccc1 (stereo unspecified) | 72 to 74 |
| Cc1cc(OCCc2ccccc2)ccc1[N+](=O)[O-] | 70 to 72 |
| CC1(C(=O)c2c[nH]c3ncc(-c4cccc(N5CCN(S(N)(=O)=O)CC5)c4)nc23)CCCCC1 | 233 to 235 |
| CN1C(=O)C2=C(c3ccc(Br)cc3)N(c3ccccc3)C(=O)C2=C1c1ccccc1 | 255 to 256 |
| COc1ccc(C=O)cc1CN1C(=O)c2ccccc2C1=O | 109 to 111 |
| O=Cc1cc2c(ccc3c4ccccc4ccc23)o1 | 169 |
| CCc1nc2c(N)nc3ccccc3c2n1CC1(O)CCN(C)CC1 | 233 to 234 |
| CCOC(=O)c1nc2c(=O)[nH]c3cc(F)ccc3n2c1C | > 250 |

| Compound | melting point [°C] |
| --- | --- |
| Cc1c(-c2nnn[nH]2)oc2c(c1=O)CS(=O)(=O)c1ccccc1-2 | 268 to 270 |
| COc1ccc(N2CCOCC2)c2sc(C(=O)NC3CCCCC3=O)nc12 (stereo unspecified) | 165 |
| CC(C(=O)N1CCCC1C(=O)O)N(C(=O)C(NC(=O)c1ccccc1)SC(=O)c1ccccc1)C(C)(C)C (stereo unspecified) | 97 to 100 |
| CC(O)c1cc(S(N)(=O)=O)sc1Sc1ccc(O)cc1 (stereo unspecified) | 133 to 137 |
| CC1Nc2ccc(Cl)c3cccc(c23)S1(=O)=O (stereo unspecified) | 150 |
| Clc1ccc2c(c1)-c1nnnn1-c1ccccc1O2 | 209 to 211 |
| CC(=O)Oc1cccc2c1CC(=O)N2C | 109 to 111 |
| O=c1ccc(C(F)(F)F)cn1-c1ccc([N+](=O)[O-])cc1Cl | 218 |
| COc1ccn2nc(S(=O)(=O)Cl)nc2n1 | 110 to 112 |
| COCCOc1ccc(/C=C/C(=O)O)c(OCC2CCCO2)c1 (stereo unspecified) | 106 to 108 |
| Cc1ccc2c(=O)c(S(=O)(=O)Cl)cn(C)c2c1 | > 300 |
| COc1ccc(CCN(C)CCCCc2ccc(NC(=O)c3cccc4c(=O)c5cc(F)ccc5sc34)cc2)cc1OC | 145 |
| CCOc1ccc(CCN(C(=O)O)C(=O)[C@H](CCSC)NC(C)=O)cc1OCC | 85 to 90 |
| Cc1cn(CCCC(=O)O)c2ccccc12 | 82 to 84 |
| Clc1ccc2c(c1)-c1[nH]ncc1CO2 | 175 to 176 |
| CCCn1c(COCC)nc2c(N)nc3cc(OC4CCN(C(C)=O)CC4)ccc3c21 | 178 to 180 |
| COC(=O)Cc1ccc(C(=O)O)cc1 | 134 to 136 |
| O=C(O)c1cc([N+](=O)[O-])ccc1Sc1cccc(Br)c1 | 202 to 206 |
| CCOC(=O)c1c(CCCN(CC)CC)nc2cc(OC)c(OC)cc2c1-c1ccc(OC)c(OC)c1 | 96 to 98 |
| CC(C)(C)c1cc(-c2ccc(NC(=O)c3ccccc3C(=O)O)cc2)cc(C(C)(C)C)c1O | 196 to 198 |
| O=C(NC1N=C(c2ccccc2F)c2ccccc2NC1=O)c1ccccc1Cl (racemic) | 224 |
| CNc1nc(-c2cccc(NC(=O)c3ccc(OCc4ccccc4)cc3)c2)c2cc(OC)c(OC)cc2n1 | 110 to 112 |

| Compound | melting point [°C] |
| --- | --- |
| COc1cc2c(cc1O)C(OC)CN(Cc1cc(OC)c(OC)c(OC)c1)C2 (stereo unspecified) | 51 to 54 |
| CCCc1c(OCCCCCC(=O)NC(C)CCCc2cccnc2)ccc(C(C)=O)c1O (stereo unspecified) | 63 to 66 |
| COc1cc(Nc2nccc(Nc3ccc(CC(=O)OCc4ccccc4)cc3)n2)cc(OC)c1OC | 149 |
| CCOC(=O)c1ccc(/C=C(\C)c2ccc3c(c2)C(C)(C)CC3(C)C)cc1 | 70 to 71 |
| CCCCn1c(C)c(Br)c(=O)c(C(=O)Nc2ccc(Br)cc2C)c1C | 190 to 192 |
| N#Cc1ccc(COc2ccc(-c3ccc(C4Cc5ccccc5C(c5c(O)c6ccccc6oc5=O)C4)cc3)cc2)cc1 (stereo unspecified) | 127 |
| C#CCOc1cc(Oc2ccc(Cl)cc2)ncn1 | 100 |
| COc1ccc(C2=NN(Cc3cccc(C(=O)O)c3)C(=O)[C@H]3CCCC[C@@H]23)cc1OC (relative stereo) | 133 to 136 |
| CCCCNc1nc(N)nc(N)n1 | 167 |
| CC(C)n1nc(-c2c(-c3ccccc3)nn3ccc(Oc4ccccn4)cc23)ccc1=O | 140 to 142 |
| COc1ccc(CCCN(CCCc2ccc(OC)c(OC)c2)C(=O)N(C)O)cc1OC | 93 to 94 |
| CCOC(=O)C1=Cc2cc(C)cc(Br)c2NC1C(F)(F)F (stereo unspecified) | 122 to 124 |
| O=C(COCc1ccccc1Cl)Nc1ccccc1 | 130 to 132 |
| CC(=O)N1CC(C)C(=O)N(C(C)=O)C1=O (stereo unspecified) | 130 to 131 |
| Cc1cc(-c2nc3cccnn3c2-c2ccnc(NC(N)=O)c2)ccc1F | 254 to 255 |
| Cc1cc(C#N)cc(C)c1OCCCc1cncs1 | 71 to 73 |
| CN(C)C(=O)c1nc(-c2ccccc2)nc2c1c1cc(Cl)ccc1n2C | 222 to 224 |
| CCCCNC(=O)Cc1ccc2c(c1)c(Cc1ccc(C(=O)NS(=O)(=O)c3ccccc3C)cc1OC)cn2C | 108 to 110 |
| C=CCOc1cc(NCC)c(C(C)=O)cc1C(C)=O | 82 to 83 |
| CCCCCCCCCCCCCCCCCCN(C)CC(O)COC(c1ccccc1)(c1ccccc1)c1ccccc1 (stereo unspecified) | 45 |
| CCOC(=O)c1ncn2c1CN=C(c1cccs1)c1cc(C#C[Si](C)(C)C)ccc1-2 | 124 to 127 |
| CC(C)NC(=NC(=Nc1ccccc1)N1CCOCC1)C(C)C | 132 to 135 |

More lines, now with the values ahead:

| melting point [°C] | Compound |
| --- | --- |
| 110 to 111 | CC(C)(C)C1=CC(=CC#N)C=C(C(C)(C)C)C1=O |
| 245 | CC(C)C1=C(C#N)C(c2cccc3nocc23)c2c[nH]nc2N1 (stereo unspecified) |
| 100 to 103 | Fc1cccc(F)c1-c1ccc2cccnc2n1 |
| 77 to 79 | COC(=O)CC(O)CC(=O)C=Cc1ccc(Cl)cc1Cl (stereo unspecified) |
| 72 to 73 | CC(C)c1nc(C(C)C)c(CC=Cc2ccccc2)c(-c2ccc(F)cc2)c1CO |
| 140 to 142 | CCC(=O)OC1(C(=O)CCl)C(C)CC2C3CCC4CC(=O)CCC4(C)C3=CCC21C (stereo unspecified) |
| 48 to 51 | Fc1c(Cl)cc(Br)c2ccccc12 |
| 58 to 61 | COc1ccc(C(=O)c2ccsc2)cc1 |
| 156 to 158 | OC1(c2ccc(Br)cc2)CCC2(CC1)OCCO2 |
| 188 to 190 | FC(F)c1nc2ccccc2n1-c1nc(NCc2ccncc2)nc(N2CCOCC2)n1 |
| 71.5 to 72 | CCOC(=O)CNC(=O)C(CCl)NC(=O)OC(C)(C)C (stereo unspecified) |
| 63 to 64 | CCOC(=O)Cn1cnc2ccccc21 |
| 125 | Clc1ccc(C(c2ccccc2)(c2ccccc2)n2ccnc2)cc1 |
| 250 | CCCc1c2occc(=O)c2cc2c(=O)c(-c3ccc(C(=O)O)cc3)c(C(=O)O)oc12 |
| 139 | CC(C)(C)NS(=O)(=O)c1c(S)cccc1C(F)(F)F |
| 93 to 95 | CC(C)NC(=O)N1CCC(O[N+](=O)[O-])CC1 |
| 168 to 169 | COC(=O)c1ccccc1-n1c(CCl)nc2c(C)cccc2c1=O |
| 164 to 165 | CC1CN(C)CC(NC(=O)c2n[nH]c3ccccc23)CN1Cc1ccccc1 (stereo unspecified) |

| melting point [°C] | Compound |
| --- | --- |
| 166 to 168 | CC(C)(O)c1cccc(-c2ccc3nc(-c4ccc(Cl)cc4)cn3c2)c1 |
| 161 to 162 | ClCc1ccc2c(c1)Nc1nccnc1S2 |
| 88 to 89 | BrCCC=C1c2ccccc2C=Cc2ccccc21 |
| 118 to 119 | CC(C)C1Oc2ccccc2NC1=O (stereo unspecified) |
| 57 | CCCCCCCCc1ccc(C=CC(=O)CC(=O)OCC)cc1 |
| 85 to 88 | OCc1cc(COc2ccc(Cl)cc2Cl)cc(OCc2ccccc2)c1 |
| 234 to 236 | CN(C(=O)CCCOc1ccc2nc3[nH]c(=O)n(C)c3cc2c1)C1CCCCCC1 |
| 85 to 90 | CCC1(CC)CN(C(C)(C)C)C(=O)C(CC)(CC)N1OC(C)c1ccccc1 (stereo unspecified) |
| 100 to 103 | O=C(O)CCCCCCCCn1nc(-c2ccccc2)c(-c2ccccc2)cc1=O |
| 165 to 166 | CCn1cc(-c2c(-c3ccc(F)cc3)nn3ccncc23)ccc1=O |
| 88 | Cc1cc(-n2ccnc2)c2cccc(OCc3c(Cl)ccc(S(=O)(=O)N4CCC[C@H]4C(=O)N(C)C)c3Cl)c2n1 |
| 39 to 42 | OCCCC1(c2ccccc2)OCCO1 |
| 57 to 58 | CCCCCCCCCCCCCN(O)C(=O)N(C)C |
| 265 | Cc1cccc2c1C(=O)C(=S)N2 |
| 200 | COc1ccccc1N1CCN(CCn2cnc3c(c2=O)CN(Cc2ccccc2)CC3)CC1 |
| 98 to 100 | O=S(=O)(Nc1ccc2c(OCc3ccc(-c4ccc(C(F)(F)F)cc4)cc3F)cccc2c1)C(F)(F)F |
| 115 to 117 | CNc1cc(C(C)=O)ccc1OCCCCl |
